According to the CheMixHub viscosity set:

Assay: xn = mol fraction of the nth substance listed

COc1ccccc1 + CCCCCCCO
viscosity [mPa·s]
Conditions	303 K	303.15 K	313 K	313.15 K	323 K	323.15 K
100 kPa, x1 = 0.126	3.393	–	2.351	–	1.972	–
100 kPa, x1 = 0.245	2.343	–	1.746	–	1.46	–
100 kPa, x1 = 0.357	1.759	–	1.349	–	1.173	–
100 kPa, x1 = 0.464	1.364	–	1.124	–	0.9642	–
100 kPa, x1 = 0.565	1.172	–	0.9672	–	0.849	–
100 kPa, x1 = 0.66	1.068	–	0.8719	–	0.7334	–
100 kPa, x1 = 0.752	0.9884	–	0.8171	–	0.684	–
100 kPa, x1 = 0.838	0.9459	–	0.7783	–	0.6326	–
100 kPa, x1 = 0.921	0.9418	–	0.7546	–	0.6041	–
101.33 kPa, x1 = 0.1002	–	3.922	–	2.94	–	2.245
101.33 kPa, x1 = 0.1999	–	3.023	–	2.359	–	1.812
101.33 kPa, x1 = 0.3	–	2.457	–	1.932	–	1.554
101.33 kPa, x1 = 0.4003	–	1.996	–	1.611	–	1.292
101.33 kPa, x1 = 0.5	–	1.701	–	1.373	–	1.161
101.33 kPa, x1 = 0.6	–	1.448	–	1.212	–	0.998
101.33 kPa, x1 = 0.7002	–	1.213	–	1.01	–	0.864
101.33 kPa, x1 = 0.8002	–	1.072	–	0.892	–	0.768
101.33 kPa, x1 = 0.9001	–	0.969	–	0.824	–	0.714

CC1COC(=O)O1 (stereo not drawn) + CCCCCCO
Conditions	viscosity [mPa·s]
298 K, 101.3 kPa, x1 = 0.0204	4.601
298 K, 101.3 kPa, x1 = 0.0408	4.607
298 K, 101.3 kPa, x1 = 0.0606	4.612
298 K, 101.3 kPa, x1 = 0.0808	4.612
298 K, 101.3 kPa, x1 = 0.1003	4.609
298 K, 101.3 kPa, x1 = 0.2005	4.548
298 K, 101.3 kPa, x1 = 0.3005	4.406
298 K, 101.3 kPa, x1 = 0.4004	4.191
298 K, 101.3 kPa, x1 = 0.5001	3.912
298 K, 101.3 kPa, x1 = 0.6002	3.586
298 K, 101.3 kPa, x1 = 0.7001	3.228
298 K, 101.3 kPa, x1 = 0.8001	2.854
298 K, 101.3 kPa, x1 = 0.9	2.536
298.15 K, 101 kPa, x1 = 0.0254	4.523
298.15 K, 101 kPa, x1 = 0.0901	4.346
298.15 K, 101 kPa, x1 = 0.1722	4.13
298.15 K, 101 kPa, x1 = 0.2303	3.984
298.15 K, 101 kPa, x1 = 0.3087	3.796
298.15 K, 101 kPa, x1 = 0.3846	3.621
298.15 K, 101 kPa, x1 = 0.4521	3.473
298.15 K, 101 kPa, x1 = 0.5332	3.303
298.15 K, 101 kPa, x1 = 0.6124	3.145
298.15 K, 101 kPa, x1 = 0.7005	2.978
298.15 K, 101 kPa, x1 = 0.7883	2.821
298.15 K, 101 kPa, x1 = 0.8455	2.722
298.15 K, 101 kPa, x1 = 0.9112	2.614
298.15 K, 101 kPa, x1 = 0.977	2.509

COc1ccccc1 + CCCCCCO
viscosity [mPa·s], 101.33 kPa
Conditions	x1 = 0.0998	x1 = 0.2	x1 = 0.3002	x1 = 0.4	x1 = 0.5	x1 = 0.6002	x1 = 0.6997	x1 = 0.8001	x1 = 0.9
303.15 K	3.055	2.413	1.969	1.661	1.423	1.27	1.097	1.009	0.927
313.15 K	2.325	1.886	1.569	1.334	1.166	1.049	0.932	0.858	0.798
323.15 K	1.798	1.481	1.248	1.107	0.966	0.878	0.786	0.744	0.699

CC1COC(=O)O1 (stereo not drawn) + CCCCCO
298.15 K, 101 kPa
Conditions	viscosity [mPa·s]
x1 = 0.0218	3.297
x1 = 0.0861	3.235
x1 = 0.1654	3.161
x1 = 0.2433	3.094
x1 = 0.3101	3.029
x1 = 0.374	2.973
x1 = 0.4207	2.933
x1 = 0.5003	2.865
x1 = 0.5691	2.808
x1 = 0.6326	2.756
x1 = 0.7214	2.685
x1 = 0.8072	2.618
x1 = 0.8655	2.574
x1 = 0.9573	2.505

COc1ccccc1 + CCCCCO
viscosity [mPa·s], 101.33 kPa
Conditions	x1 = 0.1	x1 = 0.1998	x1 = 0.3002	x1 = 0.4001	x1 = 0.5	x1 = 0.6002	x1 = 0.6998	x1 = 0.6999	x1 = 0.8001	x1 = 0.9
303.15 K	2.369	1.911	1.658	1.447	1.26	1.109	–	1.046	0.952	0.914
313.15 K	1.841	1.522	1.326	1.173	1.022	0.929	–	0.862	0.814	0.791
323.15 K	1.403	1.172	1.062	0.953	0.853	0.792	0.745	–	0.708	0.696

C1CCOC1 + CCCCO
101 kPa
Conditions	viscosity [mPa·s]
298.15 K, x1 = 0.0512	2.141
298.15 K, x1 = 0.102	1.844
298.15 K, x1 = 0.1406	1.658
298.15 K, x1 = 0.183	1.504
298.15 K, x1 = 0.3126	1.154
298.15 K, x1 = 0.4002	0.9777
298.15 K, x1 = 0.4443	0.9072
298.15 K, x1 = 0.5	0.8514
298.15 K, x1 = 0.5121	0.8099
298.15 K, x1 = 0.5924	0.7195
298.15 K, x1 = 0.6795	0.6388
298.15 K, x1 = 0.7633	0.5776
298.15 K, x1 = 0.8268	0.5346
298.15 K, x1 = 0.8944	0.5033
298.15 K, x1 = 0.9677	0.4714
313.15 K, x1 = 0.0576	1.529
313.15 K, x1 = 0.1184	1.324
313.15 K, x1 = 0.173	1.166
313.15 K, x1 = 0.2282	1.035
313.15 K, x1 = 0.3549	0.831
313.15 K, x1 = 0.4542	0.7105
313.15 K, x1 = 0.5481	0.6237
313.15 K, x1 = 0.6462	0.5526
313.15 K, x1 = 0.7386	0.4994
313.15 K, x1 = 0.8296	0.4574
313.15 K, x1 = 0.8747	0.439
313.15 K, x1 = 0.9154	0.4256
313.15 K, x1 = 0.9584	0.4129

CC(=O)Oc1ccccc1C(=O)O + CCCCO
viscosity [mPa·s], 101 kPa
Conditions	x1 = 0.0007	x1 = 0.00094	x1 = 0.00118	x1 = 0.00141	x1 = 0.00165	x1 = 0.00189	x1 = 0.00236
293.15 K	2.93	2.931	2.932	2.933	2.934	2.935	2.938
298.15 K	2.57	2.571	2.572	2.573	2.574	2.575	2.576
303.15 K	2.26	2.262	2.262	2.263	2.264	2.265	2.266
308.15 K	2.001	2.002	2.003	2.005	2.005	2.007	2.009
310.15 K	1.9	1.901	1.901	1.902	1.903	1.903	1.905
313.15 K	1.766	1.767	1.767	1.768	1.768	1.769	1.769

CC(C)=O + CCCCO
Conditions	viscosity [mPa·s]
298.15 K, 101 kPa, x1 = 0.12	1.65
298.15 K, 101 kPa, x1 = 0.24	1.164
298.15 K, 101 kPa, x1 = 0.35	0.8875
298.15 K, 101 kPa, x1 = 0.46	0.7108
298.15 K, 101 kPa, x1 = 0.56	0.5919
298.15 K, 101 kPa, x1 = 0.66	0.5089
298.15 K, 101 kPa, x1 = 0.75	0.4285
298.15 K, 101 kPa, x1 = 0.84	0.4014
298.15 K, 101 kPa, x1 = 0.92	0.3651
303.15 K, 101.33 kPa, x1 = 0.1152	1.535
303.15 K, 101.33 kPa, x1 = 0.2307	1.127
303.15 K, 101.33 kPa, x1 = 0.3341	0.879
303.15 K, 101.33 kPa, x1 = 0.4685	0.642
303.15 K, 101.33 kPa, x1 = 0.7032	0.427
303.15 K, 101.33 kPa, x1 = 0.7974	0.368

CC1COC(=O)O1 (stereo not drawn) + CCCCO
298 K, 101.3 kPa
Conditions	viscosity [mPa·s]
x1 = 0.0202	2.541
x1 = 0.0403	2.511
x1 = 0.0604	2.482
x1 = 0.08	2.452
x1 = 0.1006	2.423
x1 = 0.2005	2.287
x1 = 0.3006	2.167
x1 = 0.4003	2.074
x1 = 0.5	2.016
x1 = 0.6001	1.999
x1 = 0.7	2.031
x1 = 0.8004	2.12
x1 = 0.9	2.271

CCCCn1cc[n+](C)c1.O=S(=O)([O-])C(F)(F)F + CCCCO
100 kPa
Conditions	viscosity [mPa·s]
298.15 K, x1 = 0.2147	6.17
298.15 K, x1 = 0.2908	8.85
298.15 K, x1 = 0.9078	62.73
303.15 K, x1 = 0.2147	5.08
303.15 K, x1 = 0.2908	6.92
303.15 K, x1 = 0.9078	50.78
308.15 K, x1 = 0.2908	6.03
313.15 K, x1 = 0.4008	9.48
318.15 K, x1 = 0.4008	7.86
323.15 K, x1 = 0.4008	7.16

Cc1ccccc1 + CCCCO
viscosity [mPa·s]
Conditions	298.15 K	303.15 K	308.15 K	313.15 K	318.15 K
101 kPa, x1 = 0.092	2.01	1.769	1.581	1.393	1.292
101 kPa, x1 = 0.1987	1.59	1.459	1.323	1.199	1.106
101 kPa, x1 = 0.2983	1.279	1.181	1.076	0.9827	0.9514
101 kPa, x1 = 0.393	1.084	1.004	0.9192	0.8418	0.8198
101 kPa, x1 = 0.5091	0.8978	0.8372	0.7739	0.714	0.7048
101 kPa, x2 = 0.12	0.56	–	–	–	–
101 kPa, x2 = 0.24	0.635	–	–	–	–
101 kPa, x2 = 0.35	0.715	–	–	–	–
101 kPa, x2 = 0.45	0.84	–	–	–	–
101 kPa, x2 = 0.55	0.997	–	–	–	–
101 kPa, x2 = 0.65	1.199	–	–	–	–
101 kPa, x2 = 0.74	1.441	–	–	–	–
101 kPa, x2 = 0.83	1.73	–	–	–	–
101 kPa, x2 = 0.92	2.12	–	–	–	–
101.33 kPa, x1 = 0.0859	–	1.86	1.656	1.489	–
101.33 kPa, x1 = 0.2006	–	1.452	1.311	1.193	–
101.33 kPa, x1 = 0.2972	–	1.175	1.065	0.979	–
101.33 kPa, x1 = 0.3877	–	0.999	0.911	0.84	–
101.33 kPa, x1 = 0.5025	–	0.833	0.77	0.713	–
101.33 kPa, x1 = 0.6013	–	0.726	0.675	0.629	–
101.33 kPa, x1 = 0.7617	–	0.59	0.557	0.524	–
101.33 kPa, x1 = 0.8121	–	0.571	0.534	0.507	–
101.33 kPa, x1 = 0.947	–	0.526	0.498	0.478	–
